Measured values reported in patent publication US11779564B2, “Methods and compositions for treating bile acid diarrhea, diarrhea associated with small intestine resection or gallbladder removal, and short bowel syndrome” (NAPO PHARMACEUTICALS, INC., priority 2017, dated 2023).

Key:
[1] = tested on: chronic diarrhea in patient with SBS; test: Case report: SBS patient with chronic diarrhea (Example 1); details: same patient, attempted for 12 years before crofelemer
[2] = in vivo, cited from earlier work

Row | Molecule | effectiveness in relieving diarrhea symptoms (earlier treatments) [1] | systemic bioavailability ([2]; human) | absorption from the GI tract [2] | tolerability [2]
1 | CN1[C@@H]2CC[C@H]1C[C@@H](OC(=O)C(CO)c1ccccc1)C2 (stereo partly shown) [atropine] | None of which were effective | – | – | –
2 | COc1ccc2c3c1O[C@H]1[C@@H](O)C=C[C@H]4[C@@H](C2)N(C)CC[C@@]341 [codeine] | None of which were effective | – | – | –
3 | CCOC(=O)C1(c2ccccc2)CCN(CCC(C#N)(c2ccccc2)c2ccccc2)CC1 [diphenoxylate] | None of which were effective | – | – | –
4 | CN(C)C(=O)C(CCN1CCC(O)(c2ccc(Cl)cc2)CC1)(c1ccccc1)c1ccccc1 [loperamide] | None of which were effective | – | – | –
5 | crofelemer | – | virtually no systemic bioavailability | little or no absorption | well tolerated
